From article PMC5544727, “The type IV pilus assembly ATPase PilB functions as a signaling protein to regulate exopolysaccharide production in Myxococcus xanthus” (Scientific Reports, 2017)
Substitutions are numbered along the chain they refer to.

What was measured:
Format in all cases: binding
[1] = molecular target: T1, PilB^WA (T. thermophilus PilB/PilF, TtPilB) (Thermus thermophilus, UniProt Q5SLC9, K654A); experiment: fluorescence titration of MANT-ATP with purified protein
T1 sequence (Q5SLC9 1-889 K654A): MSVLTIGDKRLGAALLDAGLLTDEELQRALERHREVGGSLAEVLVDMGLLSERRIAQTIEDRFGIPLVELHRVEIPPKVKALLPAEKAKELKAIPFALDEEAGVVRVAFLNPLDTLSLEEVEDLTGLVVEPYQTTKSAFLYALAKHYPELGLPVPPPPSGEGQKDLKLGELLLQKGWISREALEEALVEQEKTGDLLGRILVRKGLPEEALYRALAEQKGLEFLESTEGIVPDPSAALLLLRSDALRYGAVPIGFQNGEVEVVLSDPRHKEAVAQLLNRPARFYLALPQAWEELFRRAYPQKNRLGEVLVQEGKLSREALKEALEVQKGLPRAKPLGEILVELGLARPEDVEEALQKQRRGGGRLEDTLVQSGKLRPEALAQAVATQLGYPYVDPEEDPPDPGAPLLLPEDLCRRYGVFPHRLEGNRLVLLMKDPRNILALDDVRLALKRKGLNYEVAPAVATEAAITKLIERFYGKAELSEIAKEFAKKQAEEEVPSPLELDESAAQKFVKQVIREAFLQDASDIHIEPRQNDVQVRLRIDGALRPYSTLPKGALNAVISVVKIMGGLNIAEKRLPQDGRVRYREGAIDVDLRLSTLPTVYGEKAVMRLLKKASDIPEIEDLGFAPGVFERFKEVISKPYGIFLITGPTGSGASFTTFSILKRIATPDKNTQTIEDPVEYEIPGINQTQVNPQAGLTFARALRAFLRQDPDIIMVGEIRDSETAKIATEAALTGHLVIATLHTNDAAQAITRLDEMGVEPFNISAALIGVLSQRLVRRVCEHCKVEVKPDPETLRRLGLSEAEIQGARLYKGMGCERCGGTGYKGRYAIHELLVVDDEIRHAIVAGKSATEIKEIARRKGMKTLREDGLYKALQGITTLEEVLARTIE

[2] = molecular target: T2, PilB^WT (T. thermophilus PilB/PilF, TtPilB) (Thermus thermophilus, UniProt Q72H73); experiment: as above
[3] = molecular target: T3, PilB^WB (T. thermophilus PilB/PilF, TtPilB) (Thermus thermophilus, UniProt Q5SLC9, E718A); experiment: as above
T3 sequence (Q5SLC9 1-889 E718A): T1 sequence (Q5SLC9 1-889 K654A) with A654K, E718A

[4] = molecular target: T3, PilB^WB (T. thermophilus PilB/PilF, TtPilB); experiment: near-UV CD spectral shift, […] ligand
[5] = molecular target: T2, PilB^WT (T. thermophilus PilB/PilF, TtPilB); experiment: near-UV CD spectral shift, […] ligand
[6] = molecular target: T2, PilB^WT (T. thermophilus PilB/PilF, TtPilB); experiment: DSF thermal stabilization, […] ligand (no Kd)
[7] = molecular target: T3, PilB^WB (T. thermophilus PilB/PilF, TtPilB); experiment: DSF thermal stabilization, […] ligand (no Kd)
[8] = molecular target: T1, PilB^WA (T. thermophilus PilB/PilF, TtPilB); experiment: near-UV CD spectral shift (less pronounced than WT), […] ligand

T2 sequence (Q72H73 entry or part of it): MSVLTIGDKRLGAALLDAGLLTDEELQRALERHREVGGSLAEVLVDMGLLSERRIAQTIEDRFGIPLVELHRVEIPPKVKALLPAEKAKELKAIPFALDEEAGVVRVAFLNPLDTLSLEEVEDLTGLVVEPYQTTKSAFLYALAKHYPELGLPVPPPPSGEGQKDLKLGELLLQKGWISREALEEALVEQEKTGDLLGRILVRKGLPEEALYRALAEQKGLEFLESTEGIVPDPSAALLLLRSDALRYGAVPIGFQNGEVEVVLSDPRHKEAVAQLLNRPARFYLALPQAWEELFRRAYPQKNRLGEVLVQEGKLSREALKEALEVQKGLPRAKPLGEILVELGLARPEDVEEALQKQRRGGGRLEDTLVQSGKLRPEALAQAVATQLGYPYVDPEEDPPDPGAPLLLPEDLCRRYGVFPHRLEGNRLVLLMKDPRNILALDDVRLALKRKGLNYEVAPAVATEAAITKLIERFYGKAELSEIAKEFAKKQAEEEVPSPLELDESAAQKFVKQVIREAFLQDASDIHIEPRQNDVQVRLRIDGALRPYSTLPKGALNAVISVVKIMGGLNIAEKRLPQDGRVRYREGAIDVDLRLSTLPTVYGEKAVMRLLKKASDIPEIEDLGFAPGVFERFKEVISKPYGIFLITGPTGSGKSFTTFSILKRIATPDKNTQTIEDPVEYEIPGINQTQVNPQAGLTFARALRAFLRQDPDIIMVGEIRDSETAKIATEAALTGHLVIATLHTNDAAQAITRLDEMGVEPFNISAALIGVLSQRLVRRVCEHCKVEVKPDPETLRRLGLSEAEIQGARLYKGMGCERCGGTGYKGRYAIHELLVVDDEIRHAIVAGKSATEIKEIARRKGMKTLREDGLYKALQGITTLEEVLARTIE

Compound `CNc1ccccc1C(=O)O[C@H]1[C@@H](O)[C@H](n2cnc3c(N)ncnc32)O[C@@H]1CO[P@@](=O)(O)O[P@](=O)(O)OP(=O)(O)O` (mixture of isomers) [MANT-ATP, 2′-/3′-O-(N-methylanthraniloyl) adenosine-5′-triphosphate] has a Kd [1] of 1230 nM, a Kd [2] of 170 nM and a Kd [3] of 190 nM.
With `Nc1ncnc2c1ncn2[C@@H]1O[C@H](COP(=O)(O)OP(=O)(O)O)[C@@H](O)[C@H]1O` [ADP] the “near-UV CD spectral shift, 0.1 mM ligand” value [4] was “The addition of ADP also shifted the spectra of PilB^WT and PilB^WB, but not that of PilB^WA” and the “near-UV CD spectral shift, 0.1 mM ligand” value [5] was “The addition of ADP also shifted the spectra of PilB^WT and PilB^WB, but not that of PilB^WA”.
With `Nc1ncnc2c1ncn2[C@@H]1O[C@H](CO[P@](=O)(O)O[P@](=O)(O)NP(=O)(O)O)[C@@H](O)[C@H]1O` [AMP-PNP, adenosine 5′-(β,γ-imido)triphosphate] the “DSF thermal stabilization, 0.4 mM ligand (no Kd)” value [6] was “This nucleotide stabilized both PilB^WT and PilB^WB, resulting in the disappearance of the first unfolding transition” and the “DSF thermal stabilization, 0.4 mM ligand (no Kd)” value [7] was “This nucleotide stabilized both PilB^WT and PilB^WB, resulting in the disappearance of the first unfolding transition”.
`Nc1ncnc2c1ncn2[C@@H]1O[C@H](COP(=O)(O)OP(=O)(O)OP(=O)(O)O)[C@@H](O)[C@H]1O` [ATP] was tested, and the “near-UV CD spectral shift (less pronounced than WT), 0.1 mM ligand” value [8] was “the shift for PilB^WA is less pronounced compared to those seen for the other two”.
